# Measurements reported in patent US20230141988A1, “PHARMACEUTICAL COMPOSITION FOR USE IN THE TREATMENT OF NEUROLOGICAL DISEASES” (Aclipse One Inc., priority 2020, published 2023).
# Where “and” joins values, the source holds several entries; their conditions need not be identical. Equal entries are not always repeated. Where two headings read alike, the source gives them in different places.
# Legend:
# [1] = in vivo; conditions: male, cynomolgus monkey, po, 10 mg/kg, Plasma concentration, fed male Cynomolgus Monkeys
# Protocol: Three male Cynomolgus Monkeys were administrated a single oral dose at 10 mg/kg. The oral vehicle was 10% (w/v) HP-β-CD in water.
# Male Cynomolgus Monkeys were purchased from Topgene Biotechnology. The animals were 2-5 years old with body weights of 2.0-5.0 kg on the dosing date. The animals were housed in a 12-hour light/12-hour dark cycle environment and had free access to food and water.
# All animals for PO administration were fasted overnight prior to dosing and will be fed approximately 2 hours after dosing.
# Three male Cynomolgus Monkeys were assigned to this study. […] The dosing regimens and formulation (vehicle) compositions are described in the following table below:
# Animals were weighed prior to dose administration on the day of dosing for calculating the actual dose volume. The dosages were prepared as illustrated in the table below:
# Blood samples were taken at the following times:
# Whole blood samples were gently inverted several times to ensure anticoagulation then placed on wet ice prior to centrifugation. Within 30 minutes of collection, the samples were centrifuged at approximately 4,000×g (force) for 5 minutes at 2 to 8° C. to obtain plasma. The stabilizing agent, ascorbic acid at 200 mg/mL, was added in a proportion of 10% in plasma. The plasma samples were stored in a freezer at −75±15° C. prior to analysis. The completion time from collection was less than 60 min. The resultant plasma samples will be immediately separated divided into 2 aliquots (˜75 μL each) and transferred to cryogenic vial. Samples will be maintained on wet ice throughout processing, and stored in a freezer at −75±15° C. prior to analysis. Samples should be protected from ambient light (under sodium lamp).
# Calibration standard working solutions were prepared at concentrations of 2, 5, 10, 20, 100, 500, 1000, 5000, 10000 ng/mL by serial dilution of the standard stock solution in 1:1 acetonitrile:water. Quality control working solutions at concentrations of 5, 10, 20, 500 and 8000 ng/mL were prepared by serial dilution of the standard stock solution in 1:1 acetonitrile:water. The QC samples were prepared on the day of analysis in the same way as calibration standards.
# Samples were prepared with 5 μL of each calibration standard working solution (2, 5, 10, 20, 100, 500, 1000, 5000, 10000 ng/mL) added to 50 μL of the blank Cynomolgus Monkeys plasma to achieve calibration standards concentrations of 0.2, 0.5, 1, 2, 10, 50, 100, 500, 1000 ng/mL (relative to a 50-4, plasma aliquot). Quality Control (QC) samples at 0.5 ng/mL (low-1), 1 ng/mL (low-2), 2 ng/mL (low-3), 50 ng/mL (mid) and 800 ng/mL (high) for plasma were prepared independently for those used for the calibration curves.
# Total volumes of 55 μL of standards, 55 μL of QC samples and 55 μL of unknown samples (50 μL of plasma with 5 μL of 1:1 acetonitrile:water) were added to 200 μL of acetonitrile containing IS to precipitate proteins. Then the samples were vortexed for 30 sec. […] All of the samples were processed on ice.
# The LC-MS/MS system consisted of two Shimadzu LC-30AD pumps, a DGU-20A5R degasser, a Rack changer II and an AB Sciex Triple Quad 5500 LC/MS/MS mass spectrometer. Chromatographic separation was performed on Agilent ZORBAX XDB-Phenyl 5 μm (50×2.1 mm) at room temperature. The mobile phase was composed of A: 5% Acetonitrile/95% water (0.1% Formic acid); B: 95% Acetonitrile/5% water (0.1% Formic acid). The flow rate was 0.6 mL/min. The injection volume was 2 μL.
# A multiple reaction monitoring (MRM) method was selected for quantitative analysis. […] The instrument parameters were set as follows: ion spray voltage: 5500 V; curtain gas: 40 psi; ion source gas 1: 50 psi; ion source gas 2: 50 psi; temperature: 450° C. The compound dependent parameters are listed as follows:
# HPLC flow rate was set at 0.6 mL/min with the following conditions:
# [2] = Plasma and CSF pharmacokinetic study, single sublingual, oral or subcutaneous dose, male Beagle dogs; format: in vivo
# Protocol: Animals were fed twice daily. […] Food was withheld until 4-hour post-dose.
# All blood samples were collected from a peripheral vessel.
# For CSF collection, a polypropylene tube was first weighted to accuracy of 0.1 mg (weight #1). CSF was collected in the tube and weighted again (weight #2). Total CSF weight was calculated by subtracting weight #1 from weight #2. Samples were kept on ice and protected from sunlight. Stabilizing agent (ascorbic acid 200 mg/mL) was added within 60 minutes in a proportion of 10% in CSF. Frozen CSF samples on dry ice were stored at −60° C. or lower until bioanalysis.
# All CSF samples were added with the equal volume of plasma. […] 30 μL supernatant was then mixed with 30 μL water, vortex-mixed well and centrifuged at 4° C.
# Dilution procedure description: Dilution factor as 5—An aliquot of 2 μL sample was added with 8 μL blank matrix.
# The flow rate was 0.6 mL/min. The injection volume was 3 μL. The following gradient was implemented: […]
# [3] = subcutaneous […], plasma, mean of 3 mice
# Protocol: (§1) 9 male C57BL/6J mice following administration of a single subcutaneous dose of 4.40 mg/kg. The vehicle for the subcutaneous formulation contained “0.1% sodium metabisulfite solution”.
# (§2) Male C57BL/6J mice were purchased from Si Bei Fu Laboratory Animal Technology Co. Ltd (Beijing, China). The animals were about 8 weeks old with body weights of 20-30 g on the dosing date. The animals were housed in a 12-hour light/12-hour dark cycle environment and had free access to food and water. All animals were fasted overnight and fed after 4 hours collection.
# (§3) For group 1, plasma samples were collected from dorsal metatarsal vein at each time point after subcutaneous administrations.
# (§4) For plasma samples, about 30 μL or 300 μL of blood samples were collected from each animal via dorsal metatarsal vein or heart. These blood samples were placed into the tubes containing K2EDTA. And centrifugation at 3000 g for 10 minutes in a 4° C. centrifuge. The completion time from collection was less than 30 min. The stabilizing agent of ascorbic acid at 200 mg/mL was added in a proportion of 10% in plasma. The plasma samples were stored in a freezer at −75±15° C. prior to analysis. The completion time from collection was less than 60 min.
# (§5) For brain and CSF samples, The animals were fully exsanguinated with a rising concentration of CO2 gas prior to CSF and brain collection.
# (§6) For CSF collection, incision was made by scissors on the neck of the rats to expose the foramen magnum. A syringe fitted with a venoclysis needle was used to sample the CSF, the tip of the needle was inserted into the membrane of foramen magnum about 1-2 mm, and a negative pressure was applied by pulling a stopcock a small length of the syringe to extract CSF fluids into a tube. The stopcock was further actuated to until a sufficient amount of CSF was collected. There should be no blood in the CSF fluid. A stabilizing agent of ascorbic acid at 200 mg/mL was added in a proportion of 10% in CSF.
# (§7) For brain collection. Brain samples were collected at an adopted time point, and washed 3 times with cold saline, then dried with clean gauze and put into the weighed tube, quick frozen in an ice box and kept at −75±15° C. All brain samples were weighted and homogenized with phosphate buffered saline (PBS) by brain weight (g) to PBS volume (mL) ratio 1:3 before analysis. The stabilizing agent of ascorbic acid at 200 mg/mL was added in a proportion of 10% in grain homogenate. The actual concentration was the detected value multiplied by the dilution factor. Brain samples were collected at designed time point, quickly homogenized and kept at −75±15° C.
# (§8) Calibration standard working solutions were prepared at concentrations of 2, 5, 10, 20, 50, 100, 500, 1000, 5000 and 10000 ng/mL by serial dilution of the standard stock solution in 50% acetonitrile in water. Quality control working solutions at concentrations of 5, 10, 500 and 8000 ng/mL were prepared by serial dilution of the standard stock solution in 50% acetonitrile in water. These QC samples were prepared on the day of analysis in the same way as calibration standards.
# (§9) For plasma and brain samples, 3 μL of each calibration standard working solution (2, 5, 10, 20, 50, 100, 500, 1000, 5000 and 10000 ng/mL) was added to 30 μL of the blank C57BL/6J mouse plasma or brain homogenate (with 10% 200 mg/mL ascorbic acid) to achieve calibration standards of 0.2-1000 ng/mL (0.2, 0.5, 1, 2, 5, 10, 50, 100, 500, 1000 ng/mL) in a total volume of 33 μL. Quality Control (QC) samples at 0.5 ng/mL (low-1), 1 ng/mL (low-2), 50 ng/mL (mid), 800 ng/mL (high) for plasma were prepared independently for those used for the calibration curves. These QC samples were prepared on the day of analysis in the same way as calibration standards.
# [4] = in vivo; conditions: male, C57BL/6J, mouse
# Protocol: as §1, §2, §3, §4, §5, §6, §7, §8, §9
# [5] = Pharmacokinetic study, single IV, subcutaneous, PO and IN dose, male SD rats (plasma); conditions: rat, in vivo
# Protocol: (§10) The vehicle for the IV, subcutaneous, PO and IN formulation contained “0.1% sodium metabisulfite solution”.
# (§11) Male SD rats were purchased from Si Bei Fu Laboratory Animal Technology Co. Ltd (Beijing, China). The animals were about 8 weeks old with body weights of 200-300 g on the dosing date. The animals were housed in a 12-hour light/12-hour dark cycle environment and had free access to food and water. All animals were fasted overnight and fed after 4 hours collection.
# (§12) Plasma samples were collected from jugular vein at each time point after IV, subcutaneous, PO and IN administrations.
# (§13) About 200 μL of blood samples were collected from each animal via jugular vein. These blood samples were placed into the tubes containing K2EDTA. And centrifugation at 3000 g for 10 minutes in a 4° C. centrifuge. The completion time from collection was less than 30 min. The stabilizing agent of ascorbic acid at 200 mg/mL was added in a proportion of 10% in plasma. The plasma samples were stored in a freezer at −75±15° C. prior to analysis. The completion time from collection was less than 60 min.
# (§14) Calibration standard working solutions were prepared at concentrations of 2, 5, 10, 20, 50, 100, 500, 1000, 5000 and 10000 ng/mL by serial dilution of the standard stock solution in 50% acetonitrile in water. Quality control working solutions at concentrations of 5, 10, 20, 500 and 8000 ng/mL were prepared by serial dilution of the standard stock solution in 50% acetonitrile in water. These QC samples were prepared on the day of analysis in the same way as calibration standards.
# (§15) For plasma samples, 2 μL of each calibration standard working solution (2, 5, 10, 20, 50, 100, 500, 1000, 5000 and 10000 ng/mL) was added to 20 μL of the blank SD rat plasma (with 10% 200 mg/mL ascorbic acid) to achieve calibration standards of 0.2-1000 ng/mL (0.2, 0.5, 1, 2, 5, 10, 50, 100, 500, 1000 ng/mL) in a total volume of 22 μL. Quality Control (QC) samples at 0.5 ng/mL (low-1), 1 ng/mL (low-2) and 2 ng/mL (low-3), 50 ng/mL (mid), 800 ng/mL (high) for plasma were prepared independently for those used for the calibration curves. These QC samples were prepared on the day of analysis in the same way as calibration standards. The total volumes of 22 μL of standards, 22 μL of QC samples and 22 μL of unknown samples (20 μL of unknown plasma (with 10% 200 mg/mL ascorbic acid) with 2 μL 50% acetonitrile) were added to 200 μL of acetonitrile containing IS to precipitate proteins. Then the samples were vortexed for 30 sec. After centrifugation at 4° C., 4700 rpm for 30 min, and supernatant was diluted 2 times with water, 10 μL of the diluted supernatant was injected into the LC-MS/MS system for quantitative analysis.
# All the samples were processed on ice.
# (§16) The LC-MS/MS system consisted of two Shimadzu LC-30AD pumps, a DGU-20A5R degasser, a Rack changer II and LCMS-8060 LC/MS/MS instrument mass spectrometer.
# (§17) OD-3R Particle size 3 μm 4.6 mm×150 mm column at room temperature. The mobile phase was composed of A: Water (5 mM Ammonium Acetate); B: Ethanol (5 mM Ammonium Acetate). The flow rate was 0.5 mL/min. The injection volume was 10 μL.
# (§18) A multiple reaction monitoring (MRM) method was selected for quantitative analysis. […] The instrument parameters were set as follows: ion spray voltage: 8060; heating gas flow: 10 L/min; interface temperature: 250° C.; DL temperature: 220° C.; heat block temperature: 400° C.; drying gas flow: 10 L/min.
# (§19) Data acquisition was performed by Lab Solutions version 5.89 Software (Shimadzu). All concentration data was reported with 3 significant figures. Data statistics were performed using Excel 2010 software.
# (§20) The linear trapezoidal algorithm was used for AUC calculation.
# [6] = Solubility in aqueous media / aqueous buffer solutions; format: physicochemical; conditions: free base, aqueous media at various pH values
# [7] = rat, in vivo; for plasma concentration: male, SD
# Protocol: as §10, §11, §12, §13, §14, §15
# All the samples were processed on ice.
# as §16, §17, §18, §19, §20
# [8] = male Beagle dogs (fasted), single SL 5 mg/kg, plasma, individual dogs
# [9] = male, beagle, dog, in vivo, 5 mg/kg, CSF concentration
# [10] = male, beagle, dog, in vivo, 5 mg/kg, plasma concentration
# [11] = male, beagle, dog, in vivo, po, 10 mg/kg, CSF concentration
# [12] = male, beagle, dog, in vivo, po, 10 mg/kg, plasma concentration
# [13] = male, beagle, dog, in vivo, sc, 1 mg/kg, CSF concentration
# [14] = male, beagle, dog, in vivo, sc, 1 mg/kg, plasma concentration
smiles,measurement,setting,value
CN1CCc2cccc3c2[C@@H]1Cc1ccc(O)c(O)c1-3,concentration at 0.5 h,[1]; animal 168777C,4.15 ng/mL
same,concentration at 0.5 h,[1]; animal 168779C,1.26 ng/mL
same,concentration at 0.5 h,[1]; animal 169939C,0.975 ng/mL
same,concentration at 1 h,"[1]; 1 h, animal 169939C",2.81 ng/mL
same,concentration at 2 h,[1]; animal 168777C,6.27 ng/mL
same,concentration at 2 h,[1]; animal 168779C,6.27 ng/mL
same,concentration at 4 h,[1]; animal 168779C,8.04 ng/mL
same,concentration at 4 h,[1]; animal 169939C,5.91 ng/mL
same,concentration at 8 h,"[1]; 8 h, animal 168777C",1.13 ng/mL
same,MRT inf,"[2]; dog, in vivo, male Beagle dogs (fasted), single PO 10 mg/kg, plasma, individual dogs",8.44 h
same,MRT inf,"[2]; dog, in vivo, male Beagle dogs (fasted), single SL 5 mg/kg, CSF, mean",3.18 h
same,Kp,"[2]; dog, in vivo, male Beagle dogs (fasted), single SL 5 mg/kg, individual dogs, read-out: AUC Ratio (AUClast ratio of CSF to total plasma)",0.337
same,AUC(0-inf),"[2]; dog, in vivo, male Beagle dogs (fasted), single SL 5 mg/kg, plasma, mean, read-out: AUCinf",162 ng·h/mL
same,AUMCExtra,"[2]; male Beagle dogs (fasted), single PO 10 mg/kg, plasma, individual dogs, 10 mg/kg",31.9%
same,AUMCExtra,"[2]; male Beagle dogs (fasted), single SL 5 mg/kg, CSF, individual dogs",5.44% and 18.5%
same,AUCExtra,[2]; [8],7.39%
same,AUMCExtra,[2]; [8],10.7%
same,AUC(0-inf),"[2]; male, beagle, dog, CSF, po, 10 mg/kg, male Beagle dogs (fasted), single PO 10 mg/kg, CSF, individual dogs, read-out: AUCinf",181 ng·h/mL
same,Kp,"[2]; male, beagle, dog, in vivo, 5 mg/kg, AUClast ratio of CSF to total plasma",1.08 ± 0.964
same,concentration at 2 h,[2]; [9],76.2 ng/mL
same,concentration at […],[2]; [9],289 ng/mL
same,AUC(0-t),"[2]; male, beagle, dog, in vivo, 5 mg/kg, male Beagle dogs (fasted), single SL 5 mg/kg, CSF, individual dogs",122 ng·h/mL
same,AUC(0-t),"[2]; male, beagle, dog, in vivo, 5 mg/kg, male Beagle dogs (fasted), single SL 5 mg/kg, CSF, mean",162 ng·h/mL
same,Cmax,"[2]; male, beagle, dog, in vivo, 5 mg/kg, male Beagle dogs (fasted), single SL 5 mg/kg, plasma, individual dogs, read-out: Cmax",162 ng/mL
same,Cmax,"[2]; male, beagle, dog, in vivo, 5 mg/kg, maximum CSF concentration (Cmax)",126 ± 144 ng/mL
same,Cmax,"[2]; male, beagle, dog, in vivo, 5 mg/kg, maximum plasma concentration (Cmax)",143 ± 24 ng/mL
same,concentration at 0.5 h,[2]; [10],162 ng/mL
same,concentration at 1 h,[2]; [10],116 ng/mL
same,concentration at 2 h,[2]; [10],10.8 ng/mL
same,concentration at 4 h,[2]; [10],3.39 ng/mL
same,concentration at 8 h,[2]; [10],2.74 ng/mL
same,concentration at […],[2]; [10],151 ng/mL
same,concentration at 0.5 h,"[2]; male, beagle, dog, in vivo, 5 mg/kg, single SL 5 mg/kg, 0.500 h, individual animal, read-out: CSF concentration",6.23 ng/mL
same,concentration at 8 h,"[2]; male, beagle, dog, in vivo, 5 mg/kg, single SL 5 mg/kg, 8.00 h, individual animal, read-out: CSF concentration",1.16 ng/mL
same,concentration at 24 h,"[2]; male, beagle, dog, in vivo, 5 mg/kg, single SL 5 mg/kg, 24.0 h, individual animal, read-out: plasma concentration",1.49 ng/mL
same,plasma concentration,"[2]; male, beagle, dog, in vivo, po, 10 mg/kg, 1 h",63.3 ng/mL
same,Kp,"[2]; male, beagle, dog, in vivo, po, 10 mg/kg, AUC Ratio (AUClast ratio of CSF to total plasma)",0.33
same,Kp,"[2]; male, beagle, dog, in vivo, po, 10 mg/kg, AUClast ratio of CSF to total plasma",0.27 ± 0.0663
same,concentration at 0.5 h,[2]; [11],48.5 ng/mL
same,concentration at 4 h,[2]; [11],8.15 ng/mL
same,concentration at […],[2]; [11],24.7 ng/mL
same,Tmax,"[2]; male, beagle, dog, in vivo, po, 10 mg/kg, Tmax",0.5 h
same,Cmax,"[2]; male, beagle, dog, in vivo, po, 10 mg/kg, male Beagle dogs (fasted), single PO 10 mg/kg, plasma, individual dogs, read-out: Cmax",84.8 ng/mL
same,concentration at 0.5 h,[2]; [12],78 ng/mL
same,concentration at 1 h,[2]; [12],42.2 ng/mL
same,concentration at 2 h,[2]; [12],22.9 ng/mL
same,concentration at 4 h,[2]; [12],15.6 ng/mL
same,concentration at 8 h,[2]; [12],9.36 ng/mL
same,concentration at 24 h,[2]; [12],4.5 ng/mL
same,concentration at […],[2]; [12],9.2 ng/mL
same,concentration at 0.5 h,"[2]; male, beagle, dog, in vivo, po, 10 mg/kg, single PO 10 mg/kg, 0.500 h, individual animal, read-out: CSF concentration",17.8 ng/mL
same,concentration at 4 h,"[2]; male, beagle, dog, in vivo, po, 10 mg/kg, single PO 10 mg/kg, 4.00 h, individual animal, read-out: CSF concentration",12.4 ng/mL
same,plasma concentration,"[2]; male, beagle, dog, in vivo, sc, 1 mg/kg, 1 h",20.7 ng/mL
same,plasma concentration,"[2]; male, beagle, dog, in vivo, sc, 1 mg/kg, 2 h",2.17 ng/mL
same,Kp,"[2]; male, beagle, dog, in vivo, sc, 1 mg/kg, AUC Ratio",0.806
same,AUC(0-inf),"[2]; male, beagle, dog, in vivo, sc, 1 mg/kg, AUCinf",88.4 ± 23.8 ng·h/mL
same,Kp,"[2]; male, beagle, dog, in vivo, sc, 1 mg/kg, AUClast ratio of CSF to total plasma",0.964 ± 0.456
same,concentration at 0.033 h,[2]; [13],1.73 ng/mL
same,concentration at 0.5 h,[2]; [13],15.6 ng/mL
same,concentration at 2 h,[2]; [13],6.55 ng/mL
same,concentration at 8 h,[2]; [13],10.8 ng/mL
same,AUC(0-t),"[2]; male, beagle, dog, in vivo, sc, 1 mg/kg, CSF, single SC 1 mg/kg, individual animal",119 ng·h/mL
same,Cmax,"[2]; male, beagle, dog, in vivo, sc, 1 mg/kg, plasma Cmax",110 ± 19.4 ng/mL
same,concentration at 0.5 h,[2]; [14],76.6 ng/mL
same,concentration at 1 h,[2]; [14],27.9 ng/mL
same,concentration at 2 h,[2]; [14],3.58 ng/mL
same,concentration at 4 h,[2]; [14],1.11 ng/mL
same,concentration at 24 h,[2]; [14],1.04 ng/mL
same,concentration at […],[2]; [14],89.2 ng/mL
same,Cmax,"[2]; male, beagle, dog, in vivo, sc, 1 mg/kg, plasma, single SC 1 mg/kg, individual animal, read-out: Cmax",113 ng/mL
same,concentration at 0.033 h,"[2]; male, beagle, dog, in vivo, sc, 1 mg/kg, single SC 1 mg/kg, 119 s, individual animal, read-out: CSF concentration",22.6 ng/mL
same,concentration at 0.033 h,"[2]; male, beagle, dog, in vivo, sc, 1 mg/kg, single SC 1 mg/kg, 119 s, mean, read-out: CSF concentration",12.2 ng/mL
same,concentration at 0.5 h,"[2]; male, beagle, dog, in vivo, sc, 1 mg/kg, single SC 1 mg/kg, 0.500 h, individual animal, read-out: CSF concentration",17.8 ng/mL
same,concentration at 1 h,"[2]; male, beagle, dog, in vivo, sc, 1 mg/kg, single SC 1 mg/kg, 1.00 h, individual animal, read-out: plasma concentration",11.9 ng/mL
same,concentration at 1 h,"[2]; male, beagle, dog, in vivo, sc, 1 mg/kg, single SC 1 mg/kg, 1.00 h, mean, read-out: CSF concentration",11.6 ng/mL
same,concentration at 2 h,"[2]; male, beagle, dog, in vivo, sc, 1 mg/kg, single SC 1 mg/kg, 2.00 h, individual animal, read-out: CSF concentration",12.8 ng/mL
same,concentration at 4 h,"[2]; male, beagle, dog, in vivo, sc, 1 mg/kg, single SC 1 mg/kg, 4.00 h, individual animal, read-out: CSF concentration",10.2 ng/mL
same,concentration at 8 h,"[2]; male, beagle, dog, in vivo, sc, 1 mg/kg, single SC 1 mg/kg, 8.00 h, individual animal, read-out: CSF concentration",4.37 ng/mL
same,Kp,"[2]; male, beagle, dog, in vivo, AUClast ratio of CSF to total plasma, single SC 1 mg/kg, individual animal, read-out: AUC Ratio",1.48
same,AUC(0-t),"[2]; male, beagle, dog, plasma, 5 mg/kg, male Beagle dogs (fasted), single SL 5 mg/kg, individual dogs",165 ng·h/mL
same,AUC(0-inf),"[2]; male, beagle, dog, plasma, 5 mg/kg, male Beagle dogs (fasted), single SL 5 mg/kg, plasma, individual dogs, read-out: AUCinf",178 ng·h/mL
same,AUC(0-inf),"[2]; male, beagle, dog, plasma, sc, 1 mg/kg, plasma, single SC 1 mg/kg, individual animal, read-out: AUCinf",115 ng·h/mL
same,AUClast/D,[3],73.8 mg·h/mL
same,concentration at 0.5 h,[4]; CSF concentration,9.59 ng/mL
same,concentration at […],[4]; CSF concentration,20.5 ng/mL
same,concentration at 0.5 h,[4]; plasma concentration,169 ng/mL
same,concentration at 1 h,[4]; plasma concentration,52 ng/mL
same,concentration at 2 h,[4]; plasma concentration,14.9 ng/mL
same,concentration at […],[4]; plasma concentration,760 ng/mL and 721 ng/mL
same,concentration at 0.5 h,"[4]; plasma concentration, Mean",187 ng/mL
same,concentration at 1 h,"[4]; plasma concentration, Mean",41 ng/mL
same,concentration at 2 h,"[4]; plasma concentration, Mean",18.7 ng/mL
same,concentration at […],"[4]; plasma concentration, Mean",970 ng/mL and 692 ng/mL
same,Cl,"[5]; iv, 0.88 mg/kg",209 mL/min/kg
same,AUClast/D,"[5]; po, […]",7.39 mg·h/mL
same,AUClast/D,"[5]; sc, 0.88 mg/kg",77.3 mg·h/mL
same,solubility,[6],low solubilities
same,plasma concentration,[7]; 0.5 h,35.7 ng/mL
same,plasma concentration,"[7]; iv, 0.88 mg/kg, 1 h",6.23 ng/mL
same,animal death related to drug administration,[7],no animal death related to drug administration
same,drug-related changes in clinical signs and behavioral responses,[7],no obvious drug-related changes in clinical signs and behavioral responses
